# Source: patent US20210322404A1, “FGFR REGULATION FOR THE TREATMENT OF VIRAL INFECTIONS” (ETH ZURICH, priority 2016, published 2021)
# Entries after “also recorded” stand apart in the source; their conditions may differ.
# B1: FGF10: recombinant human FGF10, activates FGFR2b and FGFR1b (protein, UniProt O15520 38-208, looked up)
# Fibroblast growth factor 10: QALGQDMVSPEATNSSSSSFSSPSSAGRHVRSYNHLQGDVRWRKLFSFTKYFLKIEKNGKVSGTKKENCPYSILEITSVEIGVVAVKAINSNYYLAMNKKGKLYGSKEFNNDCKLKERIEENGYNTYASFNWQHNGRQMYVALNGKGAPRRGQKTRRKNTSAHFLPMVVHS
# What was measured:
# HSV-1 = HSV-1 infection of HaCaT cells, virus load; assay type: cell-based, Herpes Simplex Virus type 1; conditions: HaCaT; for amount and size of Glyc-D-positive fused cells (immunofluorescence): HSV-1; for amount and size of Glyc-D-positive fused cells (immunofluorescence) / Glyc-B DNA levels (viral load, qPCR relative to human β-actin gene): NSC23766 20 μM, AZD4547 1 μM; for Glyc-B DNA levels (viral load, qPCR relative to human β-actin gene): HSV-1 MOI=0.5, +/- FGF7 10 ng/ml, BGJ398 3.5 μM
# Experimental: FIGS. 5A-C relate to HaCaT cells infected with HSV-1 (MOI=0.5) after overnight serum starvation, either alone or in combination with FGF7 (10 ng/ml) or IFNα (1000U/ml). 24 h after infection, virus load was determined by qPCR for the HSV-1 Glycoprotein B (Glyc-B) gene relative to the human β-actin gene (A) or visualized by immunofluorescence staining for HSV-1 Glycoprotein D (Glyc-D) (red) (B). The Glyc-B/β-actin gene ratio in HSV-1 infected cells was set to 1. Cell nuclei were stained with DAPI (blue). Magnification bar: 200 μm. (C) Transmission microscopy images of HaCaT cells taken 48 h after HSV-1 infection. […] Magnification bar: 80 μm. Representative data out of four experiments are shown.
# FIGS. 5 D & E relate to overnight-starved HaCaT cells infected with HSV-1 (MOI=0.5) alone or in combination with IFNα (1000 U/ml), IFNα and FGF7 (10 ng/ml) (D); or FGF7 at different concentrations (E).
# FIG. 5F pertains to serum-starved HaCaT cells that were infected with HSV-1 (MOI 0.5-1). After 4 h, infected cells were washed with PBS, followed by addition of fresh serum-free culture medium containing FGF7 (10 ng/ml).
# FIGS. 5G-K pertains to overnight-starved HaCaT cells infected with HSV-1 (MOI=0.5) alone or in combination with FGF7, which was added at the indicated time points. 12 h after infection, cells were analyzed for Glyc-B DNA (H) and, RSAD2 and IRF7 mRNA levels by qPCR/qRT-PCR (I) or for ISG protein levels by western blotting (K). Vinculin was used as loading control.
# FIGS. 7A-C relate to serum-starved HaCaT cells that were infected with HSV-1 in the presence or absence of FGF7 (10 ng/ml), NSC23766 (20 μM), the FGFR kinase inhibitors AZD4547 (1 μM) and BGJ398 (3.5 μM) (A) or IFNα (1000 U/ml) (B). […] Magnification bar: 500 μm. The Glyc-D positive area was quantified using digital pixel measurements (C, right). A representative out of two experiments is shown.
# Frozen sections from mouse back skin were fixed with cold methanol, and unspecific binding sites were blocked with PBS/2% bovine serum albumin (BSA) (Sigma)/1% fish skin gelatin (Sigma)/0.05% Triton X-100 (Carl Roth GmbH, Karlsruhe, Germany) for 2 h at room temperature. Samples were then incubated overnight at 4° C. with anti-IRF7 or anti-K14 antibodies diluted in the same buffer. After three washes with 1×PBS/0.1% Tween 20 (Carl Roth GmbH), slides were incubated at room temperature (RT) for 4 h with secondary antibodies (AF555-conjugated anti-rabbit IgG and AF488-conjugated anti-mouse IgG) and DAPI (4′,6-diamidino-2-phenylindole dihydrochloride) (Sigma) as counter-stain, washed again and mounted with Mowiol (Hoechst, Frankfurt, Germany). Stained sections were photographed with a Leica SP1-2 confocal microscope equipped with a 63×0.6-1.32 NA (Iris) PL Apo Oil objective. For data acquisition the Leica Confocal Software (Leica, Wetzlar, Germany) was used. For immunofluorescence staining of cultured cells, they were washed with PBS and either fixed for 5 min with cold methanol for staining with antibodies against ZO-1 and IRF7, or with 4% paraformaldehyde (PFA) (Sigma) for 20 min at RT for Glyc-D staining. PFA-fixed cells were then incubated for 10 min with 0.5% Triton X-100 in PBS. After 1 h blocking in PBS containing 2% BSA, cells were stained with the primary antibodies for 1 h in the same blocking buffer. After three washes with PBS, cells were incubated with the secondary antibodies (AF555-conjugated anti-mouse IgG, AF488-conjugated anti-mouse IgG and AF555-conjugated anti-rabbit IgG) and DAPI.
# [1] = system: interferon-stimulated genes (ISGs); assay: ISG expression in primary mouse keratinocytes pre-incubated with inhibitors, then treated with FGF7 (qRT-PCR); assay type: cell-based; conditions: primary keratinocytes from wild-type mice; inhibitor 3 h (SB203580 5 μM, NSC23766 50 μM, AZD4547 1 μM), then FGF7 10 ng/ml 6 h
# HCV = conditions: hepatic / hepatoma cells, Van et al.; cited from earlier work
# [2] = system: interferon-stimulated response element (ISRE); assay: ISRE luciferase reporter assay in immortalized mouse keratinocytes; assay type: cell-based; conditions: FGF7 10 ng/ml and/or IFNα 1000 U/ml, 12 h
# Experimental: FIG. 3C pertains to immortalized mouse keratinocytes that were co-transfected with TK-Renilla and pGL4.45[luc2P/ISRE/Hygro] plasmids, starved in serum-free medium and then treated with FGF7 (10 ng/ml) and/or IFNα (1000 U/ml) for 12 h. Firefly luciferase activity was determined in cell lysates and normalized to Renilla luciferase activity (transfection control). The mean value in vehicle-treated cells (CTRL) was set to 1.
# Mouse keratinocytes and HEK 293 cells were transfected with the expression vector for TK-Renilla and the expression vector pGL4.45[luc2P/ISRE/Hygro] (Promega). The latter contains five copies of an ISRE that drives expression of the luciferase reporter gene. Cells were seeded into 12-well plates, cultured for 24 h, and transfected using Lipofectamine 2000 […]. They were then starved in serum-free medium, treated with FGF7 (10 ng/ml) and/or IFNα (1000 U/ml) for 12 h, lysed and analyzed using a dual-luciferase assay system (Promega) as described by the manufacturer. Relative light units were measured in a GloMax 96 microplate luminometer with dual injectors (Promega).
# LCMV = assay type: cell-based, Lymphocytic Choriomeningitis Virus; conditions: HaCaT, LCMV MOI 0.05 or 0.2
# [3] = system: interferon-stimulated genes (ISGs); assay: ISG expression in human keratinocytes (HaCaT, primary foreskin) treated with FGF7, FGF10 and/or IFNα (qRT-PCR); assay type: cell-based; conditions: HaCaT, 10 ng/ml, 6 h
# Experimental: FIG. 2F relates to serum-starved immortalized human keratinocytes (HaCaT cell line) that were treated for 6 h with FGF7, FGF10 (both 10 ng/ml) or vehicle (CTRL). RNA was analyzed by qRT-PCR for the expression of the indicated ISGs relative to RPLP0. Mean expression levels in CTRL cells were set to 1. Representative data from three experiments are shown. Scatter plot and mean values are shown in (A-D). Each dot represents a biological replicate.
# FIGS. 3E and F pertain to confluent human primary foreskin keratinocytes and (E) or HaCaT cells (F) that were serum-starved for 24 h and treated with FGF7 (10 ng/ml) and/or IFNα (500 U/ml) for 16 h. Cells were analyzed for ISG mRNA levels by qRT-PCR relative to RPLP0. Mean expression levels in vehicle-treated (CTRL) cells were set to 1.
# The human HaCaT keratinocyte cell line was cultured in DMEM (Sigma) supplemented with 10% FCS (Thermo Fisher). […]
# Total RNA from isolated epidermis of mice or from total skin was purified with Trizol, followed by additional purification with the RNeasy Mini Kit, including on-column DNase treatment (Qiagen, Hilden, Germany). […] Relative gene expression was determined using the Roche LightCycler 480 SYBR Green system (Roche, Rotkreuz, Switzerland).
molecule,measurement,setting,value
"CCN(CC)CCCC(C)Nc1nc(C)cc(Nc2ccc3nc(C)cc(N)c3c2)n1 (racemic) [NSC23766, 6-N-[2-[5-(diethylamino)pentan-2-ylamino]-6-methylpyrimidin-4-yl]-2-methylquinoline-4,6-diamine, reference compound]",amount and size of Glyc-D-positive fused cells (immunofluorescence),HSV-1,strongly reduced the amount of Glyc-D-positive fused cells
same,"Glyc-B DNA levels (viral load, qPCR relative to human β-actin gene)",HSV-1,strongly reduced
same,FGF7-mediated ISG downregulation (ISG mRNA relative to Rps29),[1],partially or even completely rescued the FGF7-mediated ISG downregulation
"COc1cc(CCc2cc(NC(=O)c3ccc(N4C[C@@H](C)N[C@@H](C)C4)cc3)n[nH]2)cc(OC)c1 [AZD4547, N-[5-[2-(3,5-dimethoxyphenyl)ethyl]-1H-pyrazol-3-yl]-4-[(3R,5S)-3,5-dimethylpiperazin-1-yl]benzamide, reference compound]",amount and size of Glyc-D-positive fused cells (immunofluorescence),HSV-1,strongly reduced the amount of Glyc-D-positive fused cells
same,"Glyc-B DNA levels (viral load, qPCR relative to human β-actin gene)",HSV-1,inhibited the positive effect of FGF7 on viral replication
same,FGF7-mediated ISG downregulation (ISG mRNA relative to Rps29),[1],The same effect was observed
"CCN1CCN(c2ccc(Nc3cc(N(C)C(=O)Nc4c(Cl)c(OC)cc(OC)c4Cl)ncn3)cc2)CC1 [BGJ398, 3-(2,6-dichloro-3,5-dimethoxyphenyl)-1-[6-[4-(4-ethylpiperazin-1-yl)anilino]pyrimidin-4-yl]-1-methylurea, reference compound]","Glyc-B DNA levels (viral load, qPCR relative to human β-actin gene)",HSV-1,inhibited the positive effect of FGF7 on viral replication
FGF1: member of the FGF family that binds to all FGFRs,HCV replication,HCV,does not enhance HCV replication
FGF2: fibroblast growth factor-2,HCV replication,HCV,"promoted hepatitis C RNA replication and production of novel particles; also recorded: enhanced viral replication and new particle production, but not infection with the virus"
IFNα,appearance of HSV-1 infected cells (transmission microscopy),HSV-1; 48 h after infection,almost indistinguishable from non-infected cells
same,viral glycoprotein B (Glyc-B) DNA,"HSV-1; HSV-1 MOI=0.5, FGF7 10 ng/ml or IFNα 1000 U/ml",had the opposite effect
same,ISRE-driven luciferase activity,[2],significant increase in luciferase activity
same,expression levels of LCMV nucleoprotein (NP) / viral replication,LCMV,blocked the viral replication
B1,ISG expression (qRT-PCR relative to RPLP0),[3],suppressed ISG expression to a similar extent as FGF7
